# Species: Rattus norvegicus
# Test: DrugMatrix - Regimen: Daily Repeat
# Type: toxicity, organism-based, Sprague-Dawley
# Set-up: regimen Daily Repeat, gender Male, age 6-8 weeks
# Conditions: in vivo, po, route oral GAVAGE, vehicle .5 % CMC; for ABSOLUTE BASOPHIL / ABSOLUTE EOSINOPHIL / ABSOLUTE LYMPHOCYTE / ABSOLUTE MONOCYTE / ABSOLUTE SEGMENTED NEUTROPHIL / BASOPHIL / EOSINOPHIL / ERYTHROCYTE COUNT / HEMATOCRIT / HEMOGLOBIN / LEUKOCYTE COUNT / LYMPHOCYTE / MEAN CORPUSCULAR HEMOGLOBIN / MEAN CORPUSCULAR HEMOGLOBIN CONCENTRATION / MEAN CORPUSCULAR VOLUME / MONOCYTE / NEUTROPHIL / NUCLEATED RED BLOOD CELLS / PLATELET COUNT: tissue Blood; for ALANINE AMINOTRANSFERASE / ALBUMIN / ALKALINE PHOSPHATASE / ASPARTATE AMINOTRANSFERASE / BLOOD UREA NITROGEN / CARBON DIOXIDE / CHLORIDE / CHOLESTEROL / CREATINE PHOSPHOKINASE / CREATININE / GLUCOSE / LACTATE DEHYDROGENASE / LIPASE / PHOSPHORUS / POTASSIUM / SODIUM / TOTAL BILIRUBIN / TOTAL PROTEIN / URIC ACID: tissue Plasma
# [1] = 4.5 mg/kg, 120 h, dose level Low, time 5 day
# [2] = 10 mg/kg, 72 h, dose level High, time 3 day
# [3] = 10 mg/kg, 120 h, dose level High, time 5 day
smiles,measurement,setting,value
CC(C(=O)O)c1ccc(-c2ccccc2)c(F)c1 (centres undefined) [FLURBIPROFEN],ABSOLUTE BASOPHIL,[1],0 CELLS/uL
same,ABSOLUTE EOSINOPHIL,[1],147.67 CELLS/uL
same,ABSOLUTE LYMPHOCYTE,[1],17510 CELLS/uL
same,ABSOLUTE MONOCYTE,[1],77.67 CELLS/uL
same,ABSOLUTE SEGMENTED NEUTROPHIL,[1],4798 CELLS/uL
same,BASOPHIL,[1],0%
same,EOSINOPHIL,[1],0.67%
same,ERYTHROCYTE COUNT,[1],5.45 x10E6/uL
same,HEMATOCRIT,[1],34.47%
same,HEMOGLOBIN,[1],12.83 G/DL
same,LEUKOCYTE COUNT,[1],22.53 x10E3/uL
same,LYMPHOCYTE,[1],77.67%
same,MEAN CORPUSCULAR HEMOGLOBIN,[1],23.53 pg
same,MEAN CORPUSCULAR HEMOGLOBIN CONCENTRATION,[1],37.23 G/DL
same,MEAN CORPUSCULAR VOLUME,[1],63.2 fL
same,MONOCYTE,[1],0.33%
same,NEUTROPHIL,[1],21.33%
same,NUCLEATED RED BLOOD CELLS,[1],0 /100WBC
same,PLATELET COUNT,[1],1825.67 x10E3/uL
same,ALANINE AMINOTRANSFERASE,[1],45.67 u/L
same,ALBUMIN,[1],3.93 G/DL
same,ALKALINE PHOSPHATASE,[1],223.33 u/L
same,ASPARTATE AMINOTRANSFERASE,[1],67.33 u/L
same,BLOOD UREA NITROGEN,[1],14.67 mg/dL
same,CARBON DIOXIDE,[1],27.67 mmol/L
same,CHLORIDE,[1],100 MEQ/L
same,CHOLESTEROL,[1],64.33 mg/dL
same,CREATINE PHOSPHOKINASE,[1],204.67 u/L
same,CREATININE,[1],0.18 mg/dL
same,GLUCOSE,[1],162.67 mg/dL
same,LACTATE DEHYDROGENASE,[1],109.33 u/L
same,LIPASE,[1],8.67 u/L
same,PHOSPHORUS,[1],11.9 mg/dL
same,POTASSIUM,[1],6.47 MEQ/L
same,SODIUM,[1],143.53 MEQ/L
same,TOTAL BILIRUBIN,[1],0.17 mg/dL
same,TOTAL PROTEIN,[1],5.73 G/DL
same,URIC ACID,[1],2.47 mg/dL
same,ABSOLUTE BASOPHIL,[2],0 CELLS/uL
same,ABSOLUTE EOSINOPHIL,[2],156 CELLS/uL
same,ABSOLUTE LYMPHOCYTE,[2],13184.67 CELLS/uL
same,ABSOLUTE MONOCYTE,[2],124.67 CELLS/uL
same,ABSOLUTE SEGMENTED NEUTROPHIL,[2],3134.67 CELLS/uL
same,BASOPHIL,[2],0%
same,EOSINOPHIL,[2],1%
same,ERYTHROCYTE COUNT,[2],4.13 x10E6/uL
same,HEMATOCRIT,[2],25.13%
same,HEMOGLOBIN,[2],10 G/DL
same,LEUKOCYTE COUNT,[2],16.6 x10E3/uL
same,LYMPHOCYTE,[2],79.67%
same,MEAN CORPUSCULAR HEMOGLOBIN,[2],24.27 pg
same,MEAN CORPUSCULAR HEMOGLOBIN CONCENTRATION,[2],39.83 G/DL
same,MEAN CORPUSCULAR VOLUME,[2],61.07 fL
same,MONOCYTE,[2],0.67%
same,NEUTROPHIL,[2],18.67%
same,NUCLEATED RED BLOOD CELLS,[2],0 /100WBC
same,PLATELET COUNT,[2],1131.67 x10E3/uL
same,ALANINE AMINOTRANSFERASE,[2],16 u/L
same,ALBUMIN,[2],2.13 G/DL
same,ALKALINE PHOSPHATASE,[2],132.67 u/L
same,ASPARTATE AMINOTRANSFERASE,[2],50 u/L
same,BLOOD UREA NITROGEN,[2],12 mg/dL
same,CARBON DIOXIDE,[2],23 mmol/L
same,CHLORIDE,[2],104.33 MEQ/L
same,CHOLESTEROL,[2],60 mg/dL
same,CREATINE PHOSPHOKINASE,[2],459.67 u/L
same,CREATININE,[2],0.11 mg/dL
same,GLUCOSE,[2],149.33 mg/dL
same,LACTATE DEHYDROGENASE,[2],200.33 u/L
same,LIPASE,[2],7.33 u/L
same,PHOSPHORUS,[2],10.17 mg/dL
same,POTASSIUM,[2],6.66 MEQ/L
same,SODIUM,[2],141.47 MEQ/L
same,TOTAL BILIRUBIN,[2],0 mg/dL
same,TOTAL PROTEIN,[2],3.97 G/DL
same,URIC ACID,[2],1.6 mg/dL
same,ABSOLUTE BASOPHIL,[3],0 CELLS/uL
same,ABSOLUTE EOSINOPHIL,[3],295.67 CELLS/uL
same,ABSOLUTE LYMPHOCYTE,[3],12633.33 CELLS/uL
same,ABSOLUTE MONOCYTE,[3],394 CELLS/uL
same,ABSOLUTE SEGMENTED NEUTROPHIL,[3],4310.33 CELLS/uL
same,BASOPHIL,[3],0%
same,EOSINOPHIL,[3],2%
same,ERYTHROCYTE COUNT,[3],4.56 x10E6/uL
same,HEMATOCRIT,[3],28.67%
same,HEMOGLOBIN,[3],11 G/DL
same,LEUKOCYTE COUNT,[3],17.63 x10E3/uL
same,LYMPHOCYTE,[3],68.33%
same,MEAN CORPUSCULAR HEMOGLOBIN,[3],24.17 pg
same,MEAN CORPUSCULAR HEMOGLOBIN CONCENTRATION,[3],38.37 G/DL
same,MEAN CORPUSCULAR VOLUME,[3],62.97 fL
same,MONOCYTE,[3],1.67%
same,NEUTROPHIL,[3],28%
same,NUCLEATED RED BLOOD CELLS,[3],0.33 /100WBC
same,PLATELET COUNT,[3],1559.67 x10E3/uL
same,ALANINE AMINOTRANSFERASE,[3],29 u/L
same,ALBUMIN,[3],2.7 G/DL
same,ALKALINE PHOSPHATASE,[3],259.67 u/L
same,ASPARTATE AMINOTRANSFERASE,[3],105.67 u/L
same,BLOOD UREA NITROGEN,[3],16 mg/dL
same,CARBON DIOXIDE,[3],25 mmol/L
same,CHLORIDE,[3],100.67 MEQ/L
same,CHOLESTEROL,[3],63.33 mg/dL
same,CREATINE PHOSPHOKINASE,[3],164.67 u/L
same,CREATININE,[3],0.13 mg/dL
same,GLUCOSE,[3],140.33 mg/dL
same,LACTATE DEHYDROGENASE,[3],138 u/L
same,LIPASE,[3],8.33 u/L
same,PHOSPHORUS,[3],11.9 mg/dL
same,POTASSIUM,[3],6.44 MEQ/L
same,SODIUM,[3],142.2 MEQ/L
same,TOTAL BILIRUBIN,[3],0.1 mg/dL
same,TOTAL PROTEIN,[3],5.03 G/DL
same,URIC ACID,[3],1.63 mg/dL

# Reference: ChEMBL document CHEMBL3885881, “DrugMatrix”
